SMILES strings stand for the structures. Bounds are passed on as bounds.

A short description of data set [1]: Plasma stability, dog plasma (HPLC-MS). In kind it is in vitro ADME. Particulars: 2 μM, 37° C. Here is the method: (§1) Plasma stability determination of the test compounds in rat, dog, cynomolgus monkey and human plasma is performed using HPLC-MS. For rat, incubations are carried out in 96-well polypropylene plates in 5 aliquots of 70 μL each (one for each time point). […] Five time points are analyzed (0, 15, 120, 480 and 1440 min). For dog, monkey and human, test compounds (2 μM, final solvent concentration 1%) were also incubated at 37° C. and analyzed at five time points (0, 10, 30, 60 and 120 min). All incubations are performed in duplicates. The samples are analyzed by HPLC-MS. The percentage of parent compound remaining after incubation in plasma is determined.

Data set [2] can be described thus: Plasma stability, human plasma (HPLC-MS). In kind it is in vitro ADME. Conditions: 2 μM, 37° C. As for the experimental part:
(§2) Plasma stability determination of the test compounds in rat, dog, cynomolgus monkey and human plasma is performed using HPLC-MS. For rat, incubations are carried out in 96-well polypropylene plates in 5 aliquots of 70 μL each (one for each time point). […] Five time points are analyzed (0, 15, 120, 480 and 1440 min). […] All incubations are performed in duplicates. The samples are analyzed by HPLC-MS. The percentage of parent compound remaining after incubation in plasma is determined.

Data set [3] in a line: Plasma stability, cynomolgus monkey plasma (HPLC-MS). In kind it is in vitro ADME. Conditions: 2 μM, 37° C. Here is the method:
as §2

Data set [4] can be described thus: Plasma stability, rat plasma (HPLC-MS). The format is in vitro ADME. Conditions: 10 μM, 37° C. As for the experimental part:
as §1

Data set [5] can be described thus: Polymorph screening of solid state drug substances. In kind it is physicochemical. Conditions: for Dry method and appearance: after stirring at 50 °C for 72 hours; for XRPD results (Dried): dried solid.
Data set [6] can be described thus: Solubility determination in oil (cottonseed oil, sesame oil), HPLC. As for the experimental part: A known amount of test substance (˜40 mg) was weighed into the vial, 100 μL of oil was added and heated to 60° C. and then system was slurried to reach equilibrium. […] Then the clear solution was placed at room temperature (25° C.) for 24 h to confirm whether there was solid precipitation. Extra oil was added into the vial once compound precipitated out and then the system was re-equilibrated at 1000 rpm at room temperature (25° C.). Final concentration was determined by HPLC method as described below in Table 6a and 6b.

[7] abbreviates: Heating Temp. 60 °C, Obs. Temp. 40 °C.
The mark [8] stands for this setting: Heating Temp. 60 °C, Obs. Temp. 25 °C.

Take `CCCCCCCCCCCC(=O)OCN1C(=O)CCc2ccc(OCCCCN3CCN(c4cccc(Cl)c4Cl)CC3)cc21` [Aripiprazole Lauroxil, reference compound]: the “% remaining at time point in minutes, 0 min” value in data set [1], in data set [2], in data set [3] and in data set [4] was 100% in each case. Besides, the “% remaining at time point in minutes, 120 min” value in data set [2] (120 min) is 80%. Moreover, the “% remaining at time point in minutes, 15 min” value in data set [4] (15 min) was determined as 84%. Besides, in data set [4], the “% remaining at time point in minutes, 1440 min” value is 46%.
Turning to `C=C1CC[C@@]2(O)C3Cc4ccc(OC(=O)OCCCCCCCCCCCCCCCC)c5c4[C@@]2(CCN3CC2CC2)[C@H]1O5` [Compound 19, (4aS,7aS,12bS)-3-(cyclopropylmethyl)-4a-hydroxy-7-methylene-2,3,4,4a,5,6,7,7a-octahydro-1H-4,12-methanobenzofuro[3,2-e]isoquinolin-9-yl hexadecyl carbonate], the “Dry method and appearance” value in data set [5] (Acetone), in data set [5] (EtOAc), in data set [5] (Heptane), in data set [5] (Isopropanol) and in data set [5] (MTBE) was “Evaporation/white powder” each time. For the same compound, the “XRPD results (Dried)” value in data set [5] (Acetone), in data set [5] (EtOAc), in data set [5] (Heptane), in data set [5] (Isopropanol) and in data set [5] (MTBE) was “Pattern A” in each case. For the same compound, in data set [4], the “% remaining at time point in minutes, 0 min” value is 100%.
As to `CCCCCCCCCCCCCCCCOC(=O)Oc1ccc2c3c1O[C@H]1C(=O)CC[C@@]4(O)C(C2)N(CC2CC2)CC[C@]314` [Compound 21, (4aS,7aR,12bS)-3-(cyclopropylmethyl)-4a-hydroxy-7-oxo-2,3,4,4a,5,6,7,7a-octahydro-1H-4,12-methanobenzofuro[3,2-e]isoquinolin-9-yl hexadecyl carbonate], the “Approximate Solubility in Excipient: Cottonseed oil” value in data set [6] (setting [7]) was 101 to 134.8 mg/mL. Besides, the “Approximate Solubility in Excipient: Sesame oil” value in data set [6] (setting [7]) was 101 to 134.5 mg/mL. In addition, the “Dry method and appearance” value in data set [5] (Acetone), in data set [5] (EtOAc), in data set [5] (Heptane), in data set [5] (Isopropanol) and in data set [5] (MTBE) was “Evaporation/white powder” each time. Further, the “XRPD results (Dried)” value in data set [5] (Acetone), in data set [5] (EtOAc), in data set [5] (Heptane), in data set [5] (Isopropanol) and in data set [5] (MTBE) was “Pattern A” throughout. Moreover, the “% remaining at time point in minutes, 0 min” value in data set [4] is reported as 100%.
With `CCCCCCCC/C=C/CCCCCCCC(=O)OCOc1ccc2c3c1O[C@H]1C(=O)CC[C@@]4(O)C(C2)N(CC2CC2)CC[C@]314` [Compound 26, (((4aS,7aR,12bS)-3-(cyclopropylmethyl)-4a-hydroxy-7-oxo-2,3,4,4a,5,6,7,7a-octahydro-1H-4,12-methanobenzofuro[3,2-e]isoquinolin-9-yl)oxy)methyl (E)-octadec-9-enoate], the “Approximate Solubility in Excipient: Cottonseed oil” value in data set [6] (setting [8]) is 204.3 to 239 mg/mL.
Turning to `C=C1CC[C@@]2(O)C3Cc4ccc(OC(=O)OCCCCCCCCCCCCCC)c5c4[C@@]2(CCN3CC2CC2)[C@H]1O5` [Compound 31, (4aS,7aS,12bS)-3-(cyclopropylmethyl)-4a-hydroxy-7-methylene-2,3,4,4a,5,6,7,7a-octahydro-1H-4,12-methanobenzofuro[3,2-e]isoquinolin-9-yl tetradecyl carbonate], the “Dry method and appearance” value in data set [5] (Acetone), in data set [5] (EtOAc), in data set [5] (Heptane), in data set [5] (Isopropanol) and in data set [5] (MTBE) was “Evaporation/white powder” throughout. In addition, the “XRPD results (Dried)” value in data set [5] (Acetone), in data set [5] (EtOAc), in data set [5] (Heptane), in data set [5] (Isopropanol) and in data set [5] (MTBE) was “Pattern A” each time. For the same compound, the “% remaining at time point in minutes, 0 min” value in data set [4] was 100%.
As for `C=C1CC[C@@]2(O)C3Cc4ccc(OC(=O)CCCCCCC/C=C\C/C=C\CCCCC)c5c4[C@@]2(CCN3CC2CC2)[C@H]1O5` [Compound 37, (4aS,7aS,12bS)-3-(cyclopropylmethyl)-4a-hydroxy-7-methylene-2,3,4,4a,5,6,7,7a-octahydro-1H-4,12-methanobenzofuro[3,2-e]isoquinolin-9-yl (9Z,12Z)-octadeca-9,12-dienoate], in data set [6] (setting [8]), the “Approximate Solubility in Excipient: Cottonseed oil” value fell in the range of 68.5 to 82 mg/mL.
For the compound `C=C1CC[C@@]2(O)C3Cc4ccc(OC(=O)CCC5CCCC5)c5c4[C@@]2(CCN3CC2CC2)[C@H]1O5` [Compound 39, (4aS,7aS,12bS)-3-(cyclopropylmethyl)-4a-hydroxy-7-methylene-2,3,4,4a,5,6,7,7a-octahydro-1H-4,12-methanobenzofuro[3,2-e]isoquinolin-9-yl 3-cyclopentylpropanoate], the “Approximate Solubility in Excipient: Cottonseed oil” value in data set [6] (Heating Temp. 40 °C, Obs. Temp. 40 °C) was 225 to 402.2 mg/mL.
Consider `CCCCC/C=C\C/C=C\CCCCCCCC(=O)Oc1ccc2c3c1O[C@H]1C(=O)CC[C@@]4(O)C(C2)N(CC2CC2)CC[C@]314` [Compound 53, (4aS,7aR,12bS)-3-(cyclopropylmethyl)-4a-hydroxy-7-oxo-2,3,4,4a,5,6,7,7a-octahydro-1H-4,12-methanobenzofuro[3,2-e]isoquinolin-9-yl (9Z,12Z)-octadeca-9,12-di.enoate], for which, in data set [6] (setting [8]), the “Approximate Solubility in Excipient: Cottonseed oil” value was over 408.5 mg/mL and the “Approximate Solubility in Excipient: Sesame oil” value is given as over 401.9 mg/mL. Besides, in data set [6] (setting [7]), the “Approximate Solubility in Excipient: Sesame oil” value was over 406.3 mg/mL. In data set [4], the “% remaining at time point in minutes, 0 min” value is 100% and the “% remaining at time point in minutes, 1440 min” value stood at 1.9%. Besides, the “% remaining at time point in minutes, 480 min” value in data set [4] (480 min) is 7.3%.
As to `CCCCCCCCCCCCCCCC(=O)Oc1ccc2c3c1O[C@H]1C(=O)CC[C@@]4(O)C(C2)N(CC2CC2)CC[C@]314` [Compound 55, (4aS,7aR,12bS)-3-(cyclopropylmethyl)-4a-hydroxy-7-oxo-2,3,4,4a,5,6,7,7a-octahydro-1H-4,12-methanobenzofuro[3,2-e]isoquinolin-9-yl palmitate], the “Dry method and appearance” value in data set [5] (Acetone), in data set [5] (EtOAc), in data set [5] (Heptane), in data set [5] (Isopropanol) and in data set [5] (MTBE) was “Evaporation/white powder” each time. The “XRPD results (Dried)” value in data set [5] (Acetone), in data set [5] (EtOAc), in data set [5] (Heptane), in data set [5] (Isopropanol) and in data set [5] (MTBE) was “Pattern B” each time. Besides, in data set [4], the “% remaining at time point in minutes, 0 min” value is given as 100%.
In the case of `CCCCCCCCCCCCCCCC(=O)OC1CCCn2c1nc(C)c(CCN1CCC(c3noc4cc(F)ccc34)CC1)c2=O` (stereo not drawn) [Paliperidone palmitate, reference compound], the “% remaining at time point in minutes, 0 min” value in data set [1], in data set [2] and in data set [3] was 100% in each case. Besides, in data set [3] (15 min), the “% remaining at time point in minutes, 15 min” value was 92%.

(Values after patent US10544154B2, “Opioid receptor antagonist prodrugs” (Nirsum Laboratories, Inc., priority 2017, dated 2020).)
